Experimental data taken from patent US9694016B2 (Novartis AG, priority 2013, dated 2017).

biological target: b-Raf (V600E) (Homo sapiens (Human), UniProt P15056, V600E); conditions: read-out: b-Raf IC-50; AlphaScreen, 60 min pre-incubation, 3 hours reaction
Sequence (P15056 whole entry V600E): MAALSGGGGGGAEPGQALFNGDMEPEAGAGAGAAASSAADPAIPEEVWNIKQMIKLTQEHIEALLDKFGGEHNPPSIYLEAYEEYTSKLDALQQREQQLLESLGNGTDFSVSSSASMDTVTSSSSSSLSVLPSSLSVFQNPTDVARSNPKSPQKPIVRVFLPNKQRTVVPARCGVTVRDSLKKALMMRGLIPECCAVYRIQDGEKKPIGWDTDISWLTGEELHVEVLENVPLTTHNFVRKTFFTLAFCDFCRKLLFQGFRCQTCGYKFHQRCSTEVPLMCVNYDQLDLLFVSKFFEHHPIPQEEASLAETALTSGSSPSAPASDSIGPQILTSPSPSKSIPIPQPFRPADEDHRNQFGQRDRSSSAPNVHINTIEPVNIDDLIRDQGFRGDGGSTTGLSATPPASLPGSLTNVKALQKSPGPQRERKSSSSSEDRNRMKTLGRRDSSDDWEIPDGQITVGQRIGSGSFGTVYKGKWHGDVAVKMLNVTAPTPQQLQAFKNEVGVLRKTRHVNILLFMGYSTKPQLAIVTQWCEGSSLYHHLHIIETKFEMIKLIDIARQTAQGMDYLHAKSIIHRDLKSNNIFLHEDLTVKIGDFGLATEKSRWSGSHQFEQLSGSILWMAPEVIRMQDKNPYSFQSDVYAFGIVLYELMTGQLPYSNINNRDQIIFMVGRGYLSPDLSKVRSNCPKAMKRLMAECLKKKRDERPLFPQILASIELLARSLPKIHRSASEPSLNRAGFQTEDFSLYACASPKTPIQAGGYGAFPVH

| SMILES | IC50 [nM] |
| --- | --- |
| Cc1ncc(NC(=O)c2ccnc(S(C)(=O)=O)c2)cc1-c1cc(N2CCOCC2)n(C)c(=O)c1 [Example 504, N-(1′,2-dimethyl-6′-morpholino-2′-oxo-1′,2′-dihydro-[3,4′-bipyridin]-5-yl)-2-(methylsulfonyl)isonicotinamide] | 21 |
| Cc1ncc(NC(=O)c2ccnc(C(C)C)c2)cc1-c1cc(N2CCOCC2)n(C)c(=O)c1 [Example 505, N-(1′,2-dimethyl-6′-morpholino-2′-oxo-1′,2′-dihydro-[3,4′-bipyridin]-5-yl)-2-isopropylisonicotinamide] | 5.8 |
| Cc1ncc(NC(=O)c2cccc(C(F)F)c2)cc1-c1cc(N2CCOCC2)n(C)c(=O)c1 [Example 506, 3-(difluoromethyl)-N-(1′,2-dimethyl-6′-morpholino-2′-oxo-1′,2′-dihydro-[3,4′-bipyridin]-5-yl)benzamide] | 1.8 |
| Cc1ncc(NC(=O)c2ccnc(C(C)(C)C)c2)cc1-c1cc(N2CCOCC2)n(C)c(=O)c1 [Example 507, 2-(tert-butyl)-N-(1′,2-dimethyl-6′-morpholino-2′-oxo-1′,2′-dihydro-[3,4′-bipyridin]-5-yl)isonicotinamide] | 20.6 |
| Cc1ncc(NC(=O)c2ccnc(C(F)F)c2)cc1-c1cc(N2CCOCC2)n(C)c(=O)c1 [Example 508, 2-(difluoromethyl)-N-(1′,2-dimethyl-6′-morpholino-2′-oxo-1′,2′-dihydro-[3,4′-bipyridin]-5-yl)isonicotinamide] | 7.8 |
| Cc1ncc(NC(=O)c2cccc(S(C)(=O)=O)c2)cc1-c1cc(N2CCOCC2)n(C)c(=O)c1 [Example 509, N-(1′,2-dimethyl-6′-morpholino-2′-oxo-1′,2′-dihydro-[3,4′-bipyridin]-5-yl)-3-(methylsulfonyl)benzamide] | 17.3 |
| Cc1ncc(NC(=O)c2ccnc(C(C)(F)F)c2)cc1-c1cc(N2CCOCC2)n(C)c(=O)c1 [Example 510, 2-(1,1-difluoroethyl)-N-(1′,2-dimethyl-6′-morpholino-2′-oxo-1′,2′-dihydro-[3,4′-bipyridin]-5-yl)isonicotinamide] | 7.5 |
| Cc1ncc(NC(=O)c2ccnc(C3CC3)c2)cc1-c1cc(N2CCOCC2)n(C)c(=O)c1 [Example 511, 2-cyclopropyl-N-(1′,2-dimethyl-6′-morpholino-2′-oxo-1′,2′-dihydro-[3,4′-bipyridin]-5-yl)isonicotinamide] | 6.4 |
| Cc1ncc(NC(=O)c2cccc(C(C)(C)S(C)(=O)=O)c2)cc1-c1cc(N2CCOCC2)n(C)c(=O)c1 [Example 512, N-(1′,2-dimethyl-6′-morpholino-2′-oxo-1′,2′-dihydro-[3,4′-bipyridin]-5-yl)-3-(2-(methylsulfonyl)propan-2-yl)benzamide] | 59.8 |
| Cn1c(N2CCOCC2)cc(-c2cc(NC(=O)c3ccnc(C(C)(F)F)c3)cnc2Cl)cc1=O [Example 513, N-(2-chloro-1′-methyl-6′-morpholino-2′-oxo-1′,2′-dihydro-[3,4′-bipyridin]-5-yl)-2-(1,1-difluoroethyl)isonicotinamide] | 2.4 |
| Cc1ccc(C(=O)Nc2cccc(C(F)F)c2)cc1-c1cc(N2CCOCC2)n(C)c(=O)c1 [Example 514, N-(3-(difluoromethyl)phenyl)-4-methyl-3-(1-methyl-6-morpholino-2-oxo-1,2-dihydropyridin-4-yl)benzamide] | 1.1 |
| Cc1ccc(C(=O)Nc2cccc(C(C)(C)C#N)c2)cc1-c1cc(N2CCOCC2)n(C)c(=O)c1 [Example 515, N-(3-(2-cyanopropan-2-yl)phenyl)-4-methyl-3-(1-methyl-6-morpholino-2-oxo-1,2-dihydropyridin-4-yl)benzamide] | 4.5 |
| Cc1ccc(C(=O)Nc2cccc(C(C)(C)O)c2)cc1-c1cc(N2CCOCC2)n(C)c(=O)c1 [Example 516, N-(3-(2-hydroxypropan-2-yl)phenyl)-4-methyl-3-(1-methyl-6-morpholino-2-oxo-1,2-dihydropyridin-4-yl)benzamide] | 17.7 |
| Cc1ccc(C(=O)Nc2cccc(C(F)(F)F)c2)cc1-c1cc(N2CCOCC2)n(C)c(=O)c1 [Example 517, 4-methyl-3-(1-methyl-6-morpholino-2-oxo-1,2-dihydropyridin-4-yl)-N-(3-(trifluoromethyl)phenyl)benzamide] | 1.2 |
| Cc1ccc(C(=O)Nc2ccccc2)cc1-c1cc(N2CCOCC2)n(C)c(=O)c1 [Example 518, 4-methyl-3-(1-methyl-6-morpholino-2-oxo-1,2-dihydropyridin-4-yl)-N-phenylbenzamide] | 79 |
| CCn1c(N2CCOCC2)cc(-c2cc(NC(=O)c3ccnc(C(C)(F)F)c3)ccc2C)cc1=O [Example 519, 2-(1,1-difluoroethyl)-N-(3-(1-ethyl-6-morpholino-2-oxo-1,2-dihydropyridin-4-yl)-4-methylphenyl)isonicotinamide] | 0.6 |
| CCn1c(N2CCOCC2)cc(-c2cc(NC(=O)c3ccnc(C(F)(F)CC)c3)ccc2C)cc1=O [Example 520, 2-(1,1-difluoropropyl)-N-(3-(1-ethyl-6-morpholino-2-oxo-1,2-dihydropyridin-4-yl)-4-methylphenyl)isonicotinamide] | 2.1 |

| SMILES | IC50 [nM] |
| --- | --- |
| CCn1c(N2CCOCC2)cc(-c2cc(NC(=O)c3ccnc(C(C)C)c3)ccc2C)cc1=O [Example 522, N-(3-(1-ethyl-6-morpholino-2-oxo-1,2-dihydropyridin-4-yl)-4-methylphenyl)-2-isopropylisonicotinamide] | 2.5 |
| Cc1ccc(NC(=O)c2ccnc(C(C)(F)F)c2)cc1-c1cc(N2CCOC[C@H]2C)n(C)c(=O)c1 [Example 523, (R)-2-(1,1-difluoroethyl)-N-(4-methyl-3-(1-methyl-6-(3-methylmorpholino)-2-oxo-1,2-dihydropyridin-4-yl)phenyl)isonicotinamide] | 3.7 |
| Cc1ncc(NC(=O)c2ccnc(C(C)(F)F)c2)cc1-c1cc(N2CCOC[C@H]2C)n(C)c(=O)c1 [Example 524, (R)-2-(1,1-difluoroethyl)-N-(1′,2-dimethyl-6′-(3-methylmorpholino)-2′-oxo-1′,2′-dihydro-[3,4′-bipyridin]-5-yl)isonicotinamide] | 41.2 |
| Cc1ccc(NC(=O)c2ccnc(C(C)(F)F)c2)cc1-c1cc(N2CCOC[C@@H]2C)n(C)c(=O)c1 [Example 525, (S)-2-(1,1-difluoroethyl)-N-(4-methyl-3-(1-methyl-6-(3-methylmorpholino)-2-oxo-1,2-dihydropyridin-4-yl)phenyl)isonicotinamide] | 3.8 |
| Cc1ccc(NC(=O)c2ccnc(C(C)(F)F)c2)cc1-c1cc(N2C3CCC2COC3)n(C)c(=O)c1 [Example 527, N-(3-(6-(3-oxa-8-azabicyclo[3.2.1]octan-8-yl)-1-methyl-2-oxo-1,2-dihydropyridin-4-yl)-4-methylphenyl)-2-(1,1-difluoroethyl)isonicotinamide] | 5.6 |
| Cn1c(N2C3CCC2COC3)cc(-c2cc(NC(=O)c3ccnc(C(C)(F)F)c3)cnc2Cl)cc1=O [Example 528, N-(6′-(3-oxa-8-azabicyclo[3.2.1]octan-8-yl)-2-chloro-1′-methyl-2′-oxo-1′,2′-dihydro-[3,4′-bipyridin]-5-yl)-2-(1,1-difluoroethyl)isonicotinamide] | 15.2 |
| Cc1ncc(NC(=O)c2ccnc(C(C)(F)F)c2)cc1-c1cc(N2CCO[C@@H](CO)C2)n(C)c(=O)c1 [Example 529, (R)-2-(1,1-difluoroethyl)-N-(6′-(2-(hydroxymethyl)morpholino)-1′,2-dimethyl-2′-oxo-1′,2′-dihydro-[3,4′-bipyridin]-5-yl)isonicotinamide] | 76.1 |
| Cc1ncc(NC(=O)c2ccnc(C(C)(F)F)c2)cc1-c1cc(N2CCO[C@H](CO)C2)n(C)c(=O)c1 [Example 530, (S)-2-(1,1-difluoroethyl)-N-(6′-(2-(hydroxymethyl)morpholino)-1′,2-dimethyl-Z-oxo-1′,2′-dihydro-[3,4′-bipyridin]-5-yl)isonicotinamide] | 51.3 |
| Cc1ccc(NC(=O)c2ccnc(C(C)(C)C#N)c2)cc1-c1cncc(N2CCOCC2)n1 [Example 531, 2-(2-cyanopropan-2-yl)-N-(4-methyl-3-(6-morpholinopyrazin-2-yl)phenyl)isonicotinamide] | 5 |
| Cc1ncc(NC(=O)c2ccnc(C(C)(C)C#N)c2)cc1-c1cncc(N2CCOCC2)n1 [Example 532, 2-(2-cyanopropan-2-yl)-N-(6-methyl-5-(6-morpholinopyrazin-2-yl)pyridin-3-yl)isonicotinamide] | 7.7 |
| Cc1ncc(NC(=O)c2ccnc(C(C)(F)F)c2)cc1-c1cncc(N2CCOCC2)n1 [Example 533, 2-(1,1-difluoroethyl)-N-(6-methyl-5-(6-morpholinopyrazin-2-yl)pyridin-3-yl)isonicotinamide] | 4.4 |
| Cc1ncc(NC(=O)c2ccnc(C(C)(C)F)c2)cc1-c1cncc(N2CCOCC2)n1 [Example 534, 2-(2-fluoropropan-2-yl)-N-(6-methyl-5-(6-morpholinopyrazin-2-yl)pyridin-3-yl)isonicotinamide] | 6 |
| Cc1ncc(NC(=O)c2ccnc(C(F)F)c2)cc1-c1cncc(N2CCOCC2)n1 [Example 535, 2-(difluoromethyl)-N-(6-methyl-5-(6-morpholinopyrazin-2-yl)pyridin-3-yl)isonicotinamide] | 45.5 |
| CCC(F)(F)c1cc(C(=O)Nc2cnc(C)c(-c3cncc(N4CCOCC4)n3)c2)ccn1 [Example 537, 2-(1,1-difluoropropyl)-N-(6-methyl-5-(6-morpholinopyrazin-2-yl)pyridin-3-yl)isonicotinamide] | 4.4 |
| CCOc1ncc(-c2cc(NC(=O)c3cccc(C(F)(F)F)c3)ccc2C)nc1N1CCOCC1 [Example 538, N-(3-(5-ethoxy-6-morpholinopyrazin-2-yl)-4-methylphenyl)-3-(trifluoromethyl)benzamide] | 1.2 |
| CCOc1ncc(-c2cc(NC(=O)c3cccc(C(F)(F)F)c3)cnc2C)nc1N1CCOCC1 [Example 539, N-(5-(5-ethoxy-6-morpholinopyrazin-2-yl)-6-methylpyridin-3-yl)-3-(trifluoromethyl)benzamide] | 2.8 |
| CCOc1ncc(-c2cc(NC(=O)c3cc(CN(C)C)cc(C(F)(F)F)c3)cnc2C)nc1N1CCOCC1 [Example 545, 3-((dimethylamino)methyl)-N-(5-(5-ethoxy-6-morpholinopyrazin-2-yl)-6-methylpyridin-3-yl)-5-(trifluoromethyl)benzamide] | 16.5 |
